Results taken from patent publication US11241434B2, “Compositions and methods for improving cognition in a subject” (Yale University, priority 2013, dated 2022).

Columns and labels:
[1] = tested on: subjects with mild to moderate AD; test: Phase Ib multiple ascending dose study, safety and tolerability; type: in vivo; details: human, 50, 100 or 125 mg PO daily
Excerpt: Subjects were enrolled in three cohorts of 8 subjects each.

[2] = tested on: PS19 mice; test: Passive avoidance test in PS19 mice; type: in vivo, mouse; details: 8-month-old PS19 mice, 6 months of treatment
Excerpt: FIGS. 11A-11C illustrate that Fyn kinase inhibition prevents memory deficits in P301S Tau transgenic tice. FIG. 11A: Timeline of PS19 mouse treatment. FIG. 11B: Morris water maze probe trial for 8-month-old PS19 or WT mice after 6 months of AZD0530 or Vehicle treatment. Twenty four hours after the reverse learning trials in the Morris water maze, the submerged platform was removed and the fraction of 60 sec spent in the target quadrant where the hidden platform had been located previously was recorded. n=11-15/group, each dot is one mouse. Data are mean±SEM. Dashed line indicates random chance performance. Two-way ANOVA reveal an interaction between genotype and treatment (p=0.014). *p<0.05; Sidak's post-hoc multiple comparisons test. FIG. 11C: Passive avoidance test for 8-month-old PS19 and WT mice after 6 months of treatment with AZD0530 or Vehicle. Latency was measured as the time for the mouse to cross to the opaque box. n=16-18/group. Wilcoxon match-pairs signed test; (WT, Vehicle: p=0.0007; WT, AZD0530: p<0.0001; […]; PS19, AZD0530: p=0.0126.)
A Passive Avoidance Controller CAT 7551 was used to conduct the passive avoidance test as previously described (Gimbel et al., 2010, J Neurosci 30:6367-6374) with slight modifications. The door delay was set to 90 seconds, and the shock intensity was set to 0.5 mA with a shock duration of 2 seconds. […]

[3] = tested on: PS19 mice; test: Immunohistochemistry of hippocampus of PS19 mice; type: in vivo, mouse
Excerpt: FIG. 12A-12F illustrate reduced phospho-Tau accumulation in transgenic mice treated with AZD0530. FIG. 12A: Representative images of AT8 immunoreactivity in the dentate gyrus (DG) of the hippocampus in 9-month-old PS19 mice after 7 months of treatment with AZD0530 or Vehicle. Scale bar, […]. FIG. 12B: Quantification of AT8-positive area (%) in the dentate gyrus of the hippocampus in 9-month-old PS19 and WT mice after 7 months of treatment. Data are mean±SEM. n=7-10/group, each dot is one mouse. […] FIG. 12C: Representative images of immunofluorescent staining for AT8 in the CA1 of the hippocampus in 9-month-old PS19 and WT mice after 7 months of treatment. Scale bar, […]. FIG. 12D: Quantification of AT8-positive area in the CA1 of the hippocampus in 9-month-old PS19 and WT mice after 7 months of treatment. Data are mean±SEM. n=7-10/group, each dot is one mouse. […] FIG. 12E: Representative images of immunofluorescent staining for PHF1 in the CA1 of the hippocampus in 9-month-old PS19 and WT mice after 7 months of treatment. Scale bar, […]. FIG. 12F: Quantification of PHF1-positive area in the CA1 of the hippocampus in 9-month-old PS19 and WT mice after 7 months of treatment. Data are mean±SEM. n=7-10/group, each dot is one mouse.
FIGS. 13A-13D illustrate that chronic Fyn inhibition prevents glial activation in mutant Tau transgenic mice. FIG. 13A: Representative images of CD68 and Ibal double immunostaining in the CA3 region of the hippocampus from 9-month-old PS19 and WT mice after 7 months of treatment with AZD0530 or Vehicle. Scale bar, 20 μm. FIG. 13B: Quantification of CD68-positive area (%) within Ibal-immuoreative area in the CA3 segment of the hippocampus from 9-month-old PS19 and WT mice after 7 months of treatment. Data are as mean±SEM. n=7-10/group, each dot is one mouse. *p<0.05; One-way ANOVA with Dunnett's multiple comparisons test. FIG. 13C: Representative images of immunofluorescent staining GFAP in the dentate gyrus (DG) of the hippocampus in 9-month-old PS19 and WT mice after 7 months of treatment. Scale bar, 20 μm. FIG. 13D: Quantification of GFAP-positive area (%) in the dentate gyrus of the hippocampus in 9-month-old PS19 and WT mice after 7 months of treatment. n=7-10/group, each dot is one mouse. Data are mean±SEM. *p<0.05; One-way ANOVA with Dunnett's multiple comparisons test.
FIGS. 14A-14B illustrate the finding that loss of presynaptic marker SV2A in P301S Tau transgenic mice is rescued by Fyn inhibition. FIG. 14A: Representative images of immunofluorescent staining for SV2A in the CA3 region of the hippocampus from 9-month-old PS19 and WT mice after 7 months of treatment with AZD0530 or Vehicle. Dashed lines represent the divide between the cell body layer and synaptic region. The cell bodies in the image were used to capture similar ROI from each section. Scale bar, 20 μm. FIG. 14B: Quantification of SV2A-positive area (%) in the CA3 of the hippocampus in 9-month-old PS19 and WT mice after 7 months of treatment. Data are mean±SEM. n=7-10/group, each dot is one mouse.
FIGS. 19A-19D illustrate low magnification survey of gliosis in PS19 mice unaffected by AZD0530. FIG. 19A: Representative images of Ibal immunostaining in the hippocampus in 9-month-old PS19 and WT mice after 7 months of treatment. Scale bar, 100 m. FIG. 19B: Quantification of Ibal-positive area (%) in the hippocampus in 9-month-old PS19 and WT mice collected after 7 months of treatment. Data are mean±SEM. n=7-10/group. One-way ANOVA. FIG. 19C: Representative images of immunofluorescent staining GFAP in the hippocampus in 9-month-old PS19 and WT mice after 7 months of treatment. Scale bar, 100 μm. FIG. 19D: Quantification of GFAP-positive area (%) in the hippocampus in 9-month-old PS19 and WT mice collected after 7 months of treatment. Data are mean±SEM. n=7-10/group. One-way ANOVA.
Immunohistochemistry was performed as previously described (Kaufman et al., 2015, Ann Neurol 77:953-971) with slight modifications. […]

[4] = 9-month-old PS19 mice, 7 months of treatment

CN1CCN(CCOc2cc(OC3CCOCC3)c3c(Nc4c(Cl)ccc5c4OCO5)ncnc3c2)CC1 [saracatinib, N-(5-chloro-benzo[d][1,3]dioxol-4-yl)-7-(2-(4-methylpiperazin-1-yl)ethoxy)-5-(tetrahydro-2H-pyran-4-yloxy)quinazolin-4-amine]
hematological changes [1]: no significant hematological changes
serious adverse events, laboratory abnormalities, early terminations [1]: no apparent study-related serious adverse events (SAEs), significant laboratory abnormalities, or early terminations
passive avoidance at 24 hours [2]: exhibited passive avoidance
AT8 (phospho-Tau Ser202/Thr205) immunoreactivity in DG and CA1 [3, 4]: significantly mitigates the increase
CD68 immunoreactivity in Iba1-immunoreactive area of CA3 [3, 4]: almost completely prevented the increase
SV2A immunoreactivity in CA3 [3, 4]: fully rescued the reduction
astrocytosis (GFAP-immunoreactive area in dentate gyrus) [3, 4]: significantly attenuated
gliosis (Iba1, GFAP) in hippocampus, low magnification survey [3, 4]: unaffected
PHF-1 (phospho-Tau Ser396/Ser404) immunoreactive area in CA1 ([3]; 9-month-old PS19 mice, 7 months of treatment, vs Vehicle): significant decrease
PY18 Tau levels ([3]; AZD0530-treated PS19 samples): no change
